According to patent US11149020B2, “MAP kinase modulators and uses thereof” (The Trustees of Columbia University in the City of New York, priority 2013, dated 2021):

Tests used:
APP/PS1 mice [1] = assay: LTP in APP/PS1 mice; assay type: in vivo, mouse; settings: 2.5 mg/kg, daily, p.o., from 2 months until 3-4 months of age
[2] = tested on: synaptic depression induced by OGD; assay: Oxygen glucose deprivation (OGD) in entorhinal slices, field potentials; settings: 10 μM, 10 min OGD
Experimental: Slice preparation. Animals were anesthetized using urethane (20% solution, 1 mL/100 g body weight) via intraperitoneal injection and then decapitated after disappearance of the tail pinch reflex. After brain removal, horizontal sections (400 μm in thickness), containing the entorhinal area, were made on a Vibratome. All steps were performed in ice-cold oxygenated ACSF solution. Before recording, slices were stored for at least 1 h in a recovery chamber containing oxygenated ACSF solution at room temperature. For electrophysiology, slices were perfused at a rate of 2.5-3 mL/min with oxygenated ACSF at 33±1° C. […] The amplitude of FP was monitored every 20 s and averaged every three responses by online data acquisition software. Effects on synaptic function were evaluated either during ischemia (as the average of FPs amplitude during the last 3 min of 10 min OGD application) or as the recovery of FPs calculated as the averaged relative amplitude of FPs respect to the baseline values after reintroduction of regular ACSF (from 41st to 50th min after the end of OGD). […]

[3] = tested on: APP/PS1 transgenic and APP/PS1 knock-in mice; assay: β-amyloid plaque count, 6E10 immunohistochemistry; assay type: in vivo, mouse
Experimental: Histopathology. Immunohistochemistry was performed using the Ventana BenchMark Ultra automated platform. Tissue sections were first deparaffinized using Ventana's “ez-prep” solution. Antigen retrieval was performed by treatment at 95° C. for 54 minutes using Ventana's CC1 (pH 7.3) solution, followed by treatment with 0.3% hydrogen peroxide to block endogenous peroxidase. Tissue sections were then incubated in protein-free block (Biocare's background sniper) for 15 min to inhibit nonspecific binding. Primary antibody (anti-Aβ 6E10 at 1:400, Biocare Medical) was incubated for 32 min at room temperature. […] A board-certified neuropathologist, who was blinded to the treatment versus the control group, analyzed a sagittal section from each mouse and counted the total number of well-formed β-amyloid plaques.
MW-150 treatment improves cognitive performance in the absence of effect on Aβ plaque burden. […] (FIG. 26C) Quantification by a board-certified neuropathologist blinded to the treatment groups was done by analysis of a brain sagittal section from each mouse in which the total number of well-formed β-amyloid plaques in the entire section were counted. […] (FIG. 26D) In a separate experiment with APP/PS1 knock-in (KI) mice, Aβ plaques were quantified from KI mice treated with MW-150 or vehicle.

[4] = Repeat dosing, observation of adverse events; assay type: in vivo, mouse; settings: aged or diseased animals
Excerpt: Further, the results in a battery of behavioral tests are consistent with a true hippocampus-dependent mechanism of action in attenuation of memory deficits. […] The selective improvement in cognitive behavior was also brought about with no effect on amyloid plaque load (Wilcock, D. M., and Colton, C. A. (2009) Immunotherapy, vascular pathology and microhemorrhages in transgenic mice. CNS Neurol. Disord.: Drug Targets 8, 50-64, herein incorporated by reference in its entirety).

APP/PS1 mice [5] = assay: RAWM in APP/PS1 mice; settings: 2.5 mg/kg, daily, p.o., from 2 months of age
APP/PS1 mice [6] = assay: Fear conditioning (contextual and cued) in APP/PS1 mice; settings: 2.5 mg/kg, daily, p.o., from 2 months of age
panel of 158 GPCRs = assay: Millipore GPCR Profiler cell-based functional screen (calcium flux FLIPR)
Excerpt: Compounds were screened in vivo using a standard dose escalation screen in mice coupled with clinical observation and testing based on the SHIRPA mouse phenotype assay paradigm (Mammalian Genome 8, 711-719 SHIRPA (1997); herein incorporated by reference in its entirety). To obtain insight into the potential for off-target activity with the largest known family of small molecule drug targets, G-protein coupled receptors (GPCRs), a cell-based functional screen of the final title compounds was done. The Millipore® GPCR Profiler screen employs the ChemiScreen GPCR stable cell line technology used for real-time calcium flux FLIPR assays on a panel of 158 GPCRs. The NCBI Entrez identifier for each GPCR is provided at the vendor site (www.millipore.com). Follow-up validation of any initial hits as being true positives or negatives was done as described above for protein kinases by testing the concentration dependence of any cellular effects.

[7] = tested on: murine microglial BV-2 cell line; assay: cells; assay type: cell-based
[8] = tested on: LPS-induced IL-1β in brain cortex; assay: In vivo LPS-induced brain cortex IL-1β; design: species or system mouse; settings: oral administration, 20 mg/Kg, 6 hrs after LPS
[9] = tested on: Aβ42-treated hippocampal slices; assay: LTP in hippocampal slices treated with oligomeric Aβ42; design: species or system mouse; settings: 10 μM, 200 nM Aβ42
Aβ42-infused mice [10] = assay: 2-day radial arm water maze (RAWM) in Aβ42-infused mice; assay type: in vivo, mouse; settings: 5 mg/Kg, i.p.
Aβ42-infused mice [11] = assay: Contextual fear conditioning in Aβ42-infused mice; assay type: in vivo, mouse; settings: 5 mg/Kg, i.p.
>291 protein kinases = assay: Millipore Profiler large-scale kinome screen

SMILES	LTP defect in APP/PS1 mice (APP/PS1 mice [1])	synaptic depression induced by OGD [2]	amyloid plaque burden [3]	adverse events with repeat dosing [4]	spatial/reference memory defect (RAWM) in APP/PS1 mice (APP/PS1 mice [5])	contextual fear memory defect in APP/PS1 mice (APP/PS1 mice [6])	GPCR screen result (panel of 158 GPCRs)	IL-1β production with diverse TLR ligands ([7]; BV-2 cells, TLR2, TLR4, TLR7/8, TLR9 ligands)	IC50 ([7]; Mus musculus, LPS-stimulated BV-2 cells, 18 hrs, read-out: IC50 using inhibition of IL-1β overproduction as end point) [nM]	LPS-induced IL-1β levels in brain cortex [8]	LTP deficit in Aβ42-treated slices [9]	reference memory deficit (RAWM) in Aβ42-infused mice (Aβ42-infused mice [10])	contextual fear memory deficit in Aβ42-infused mice (Aβ42-infused mice [11])	large scale kinase screen result (>291 protein kinases)
CN1CCN(c2cc(-c3ccncc3)c(-c3ccc4ccccc4c3)nn2)CC1 [27 (MW-150), 6-(4-methylpiperazine-1-yl)-3-(naphthalen-2-yl)-4-(pyridin-4-yl)pyridazine]	rescue defects in LTP	ameliorated	no effects of MW-150 treatment on the amyloid plaque burden	did not bring about any observed adverse events	rescue defects in spatial memory	rescue the defect in contextual fear learning								
CN(C)c1cc(-c2ccncc2)c(-c2ccc3ccccc3c2)nn1 [MW-108 (2)]							negative	also seen in BV-2 cells stimulated with diverse TLR ligands	610 ± 20	restored IL-1β levels in the brain cortex back towards control	ameliorated the Aβ-induced electrophysiological deficit	rescued the memory defects	prevented by MW-108 (2) administration	negative
